According to patent US6878722B2, “Substituted cycloalkyl P1′ hepatitis C virus inhibitors” (Bristol-Myers Squibb Company, priority 2002, dated 2005):

What was measured:
[1] = system: HCV replicon in Huh7 cells; assay: HCV replicon cell-based assay (FRET); settings: Hepatitis C virus, Huh-7; HCV replicon; read-out: EC50 range
Method in brief: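 Huh7 cells stably carrying a genotype 1b HCV replicon (IRES-neo-EMCV-IRES-NS3-NS5B) were treated with compound for 4 days at 37 °C in 0.5% DMSO final. Lysates containing 10 μM FRET peptide RET S1 were read kinetically at 340/490 nm to give NS3 protease activity, from which EC50 was derived.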

[2] = biological target: T1, HCV NS3/4A protease complex (BMS strain, genotype 1a) (Hepatitis C virus genotype 1a, UniProt P27958, C1454S); assay: Recombinant HCV NS3/4A protease complex FRET peptide assay, BMS strain; assay type: biochemical; settings: IC50 range, NS3/4A BMS Strain
T1 construct: DNA encoding the recombinant HCV NS3/4A protease complex (amino acids 1027 to 1711) for these strains; inferred from the pET21b vector and Ni-NTA purification; made in house; host or cells: Escherichia coli BL21 (DE3), pET21b
Method in brief: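 Recombinant NS3/4A complex (aa 1027–1711) with C-terminal three-lysine tail, C1711G and C1454S, expressed in E. coli BL21(DE3) and purified by Ni-NTA then Superdex-S200. Inhibition of the complex from each strain measured in vitro by FRET peptide cleavage.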

T1 sequence (P27958 1658-1714, looked up, stated change not applied): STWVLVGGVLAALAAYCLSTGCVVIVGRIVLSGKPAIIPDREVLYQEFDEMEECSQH
T1 sequence (P27958 1027-1657, looked up, stated change not applied): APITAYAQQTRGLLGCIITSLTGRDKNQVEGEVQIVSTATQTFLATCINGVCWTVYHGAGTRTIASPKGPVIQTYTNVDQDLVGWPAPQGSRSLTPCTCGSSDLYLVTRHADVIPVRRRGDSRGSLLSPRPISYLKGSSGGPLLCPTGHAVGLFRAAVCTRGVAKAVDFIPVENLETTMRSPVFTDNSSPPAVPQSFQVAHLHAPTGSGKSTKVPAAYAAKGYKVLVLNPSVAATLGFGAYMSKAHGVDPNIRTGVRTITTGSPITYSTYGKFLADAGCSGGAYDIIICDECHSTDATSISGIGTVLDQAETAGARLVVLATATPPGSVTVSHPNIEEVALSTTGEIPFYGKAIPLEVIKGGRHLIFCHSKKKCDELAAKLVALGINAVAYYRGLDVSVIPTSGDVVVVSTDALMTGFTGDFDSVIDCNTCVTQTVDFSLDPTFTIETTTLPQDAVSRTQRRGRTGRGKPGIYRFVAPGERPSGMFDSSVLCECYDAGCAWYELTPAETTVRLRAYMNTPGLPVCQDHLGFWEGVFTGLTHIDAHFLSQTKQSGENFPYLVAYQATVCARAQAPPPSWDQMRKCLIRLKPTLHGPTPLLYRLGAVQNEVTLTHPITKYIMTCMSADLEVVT

| Structure (SMILES) | EC50 [1] | IC50 [2] |
| --- | --- | --- |
| C=C[C@@H]1C[C@]1(NC(=O)[C@@H]1C[C@@H](Oc2cc(-c3ccccc3)nc3cc(OC)ccc23)CN1C(=O)[C@@H](NC(=O)O[C@H]1CCOC1)C(C)(C)C)C(=O)NS(=O)(=O)C1(Cc2ccccc2)CC1 [Compound 57, {1-[2-[1-(1-Benzyl-cyclopropanesulfonylaminocarbonyl)-2-vinyl-cyclopropylcarbamoyl]-4-(7-methoxy-2-phenyl-quinolin-4-yloxy)-pyrrolidine-1-carbonyl]-2,2-dimethyl-propyl}-carbamic acid tetrahydro-furan-3-yl ester] | 0.05 to 0.5 µM | < 0.05 µM |
| C=CCC1(S(=O)(=O)NC(=O)[C@@]2(NC(=O)[C@@H]3C[C@@H](Oc4ccnc5cc(Cl)ccc45)CN3C(=O)[C@@H](NC(=O)OC3CCCC3)C(C)(C)C)C[C@H]2C=C)CC1 [Compound 67, {1-[2-[1-(1-Allyl-cyclopropanesulfonylaminocarbonyl)-2-vinyl-cyclopropylcarbamoyl]-4-(7-chloro-quinolin-4-yloxy)-pyrrolidine-1-carbonyl]-2,2-dimethyl-propyl}-carbamic acid cyclopentyl ester] | 0.05 to 0.5 µM | 0.05 to 0.5 µM |
| C=C[C@@H]1C[C@]1(NC(=O)[C@@H]1C[C@@H](Oc2cc(-c3ccccc3)nc3cc(OC)ccc23)CN1C(=O)[C@@H](NC(=O)OCC(C)(C)C)C(C)(C)C)C(=O)NS(=O)(=O)C1(Cc2ccccc2)CC1 [Compound 105] | 0.05 to 0.5 µM | < 0.05 µM |
| C=C[C@@H]1C[C@]1(NC(=O)[C@@H]1C[C@@H](Oc2cc(-c3ccccc3)nc3cc(OC)ccc23)CN1C(=O)[C@@H](NC(=O)OC(C)(C)C)C(C)(C)C)C(=O)NS(=O)(=O)C1(CCC)CC1 [Compound 29, (1-{4-(7-Methoxy-2-phenyl-quinolin-4-yloxy)-2-[1-(1-propyl-cyclopropanesulfonylaminocarbonyl)-2-vinyl-cyclopropylcarbamoyl]-pyrrolidine-1-carbonyl}-2,2-dimethyl-propyl)-carbamic acid tert-butyl ester] | < 0.05 µM | < 0.05 µM |
